One series has as its target aPKCζ (Homo sapiens (Human), UniProt Q05513). The experiment in a line: Kinase-Glo end-point assay, IC50 against aPKCζ. Conditions: 125 ng/ml aPKCζ, 25 μM CREBtide, 0.1 μM ATP. (Kinase-Glo measures the ATP left after a reaction by luminescence.)
The next series addresses PKCα (Homo sapiens (Human), UniProt P17252). The experiment in a line: Radio-labeled kinase assay at the Kmapp for ATP. The series is classed as biochemical. The text has this: (§1) PKCldiMeO and PKCζl-diCl were screened against other PKC isoforms to determine class specificity using a radio-labeled kinase assay at the Kmapp for ATP. […] PKCζl-diCl was 5-10 fold more specific towards the atypical PKC isoforms compared to the classical PKCs (α, β) and over 10-20 fold more specific compared to the novel class (δ,ε).

The next series concerns the target PKCβ (Homo sapiens (Human), UniProt P05771). Nature of the series: Radio-labeled kinase assay at the Kmapp for ATP. The series is classed as biochemical.
Excerpt: as §1

The next series deals with PKCδ (Homo sapiens (Human), UniProt Q05655). Nature of the series: Radio-labeled kinase assay at the Kmapp for ATP. The series is classed as biochemical.
Chain of PKCδ (Q05655 whole entry): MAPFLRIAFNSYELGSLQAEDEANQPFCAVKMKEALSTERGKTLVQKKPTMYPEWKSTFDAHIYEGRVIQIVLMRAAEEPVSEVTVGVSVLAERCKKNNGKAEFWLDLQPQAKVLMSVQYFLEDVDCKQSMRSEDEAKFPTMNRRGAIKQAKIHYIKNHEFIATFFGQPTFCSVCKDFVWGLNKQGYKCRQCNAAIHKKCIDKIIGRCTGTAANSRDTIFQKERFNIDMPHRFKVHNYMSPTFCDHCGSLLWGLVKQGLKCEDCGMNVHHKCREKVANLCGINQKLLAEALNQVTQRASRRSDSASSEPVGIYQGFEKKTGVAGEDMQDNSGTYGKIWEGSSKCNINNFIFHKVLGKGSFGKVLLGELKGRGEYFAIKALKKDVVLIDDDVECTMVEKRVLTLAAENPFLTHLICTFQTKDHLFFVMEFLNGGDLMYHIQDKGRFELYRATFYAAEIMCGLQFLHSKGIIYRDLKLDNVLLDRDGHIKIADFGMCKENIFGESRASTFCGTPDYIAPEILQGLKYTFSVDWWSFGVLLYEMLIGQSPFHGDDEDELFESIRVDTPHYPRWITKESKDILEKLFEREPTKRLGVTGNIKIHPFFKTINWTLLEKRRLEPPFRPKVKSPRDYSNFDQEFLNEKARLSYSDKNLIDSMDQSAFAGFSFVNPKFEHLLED
Excerpt: as §1

Another series concerns the target PKCε (Homo sapiens (Human), UniProt Q02156). The experiment in a line: Radio-labeled kinase assay at the Kmapp for ATP. The series is classed as biochemical.
Excerpt: as §1

A further series deals with PKC isoforms. Nature of the series: PKC class specificity from radio-labeled kinase assay. The series is classed as biochemical, human.
Excerpt: as §1

Series [1] relates to 20 AGC super-family kinases. Nature of the series: Screen of 20 AGC super-family kinases at 100 μM. The series is classed as biochemical, human.
The subject of series [2] is cPKC / Erk phosphorylation in endothelial cells. The experiment in a line: cPKC activity in cell culture (Erk phosphorylation, immunoblot). The series is classed as cell-based. As for the experimental part:
Cells were harvested in extraction buffer containing 100 mM NaCl, 1% Triton X-100, 0.5% Sodium Deoxycholate, 0.2% SDS, 2 mM EDTA, 10 mM HEPES (pH 7.5), 1 mM sodium orthovanadate, 10 mM sodium fluoride, 10 mM sodium pyrophosphate, 1 mM benzamadine, 1 complete protease inhibitor tablet, 10 μM LR-microcystin. Following protein extraction, Western blot utilizing the NuPAGE system (Invitrogen, Carlsbad, Calif., USA) was performed. Protein content was determined using DC protein assay (BioRad, Hercules, Calif., USA) and equal amounts of protein were loaded in 4-12% Bis-Tris gradient gels. Following electrophoresis and transferring to nitrocellulose, membranes were blocked in milk with 5% Tris-buffered saline with 0.1% Tween 20. Membranes were immunoblotted using anti-Flag (Cell Signaling, Danvers, Mass., USA), anti-HA (Cell Signaling, Danvers, Mass., USA), anti-phospho ERK1/2 (Cell Signaling, Danvers, Mass., USA), anti-total ERK1/2 (Cell Signaling, Danvers, Mass., USA), anti-phospho aPKC (Cell Signaling, Danvers, Mass., USA), total PKCζ (Santa Cruz, Santa Cruz, Calif., USA), and anti-actin (Millipore, Billerica, Mass., USA) antibodies. Primary antibodies were detected by horseradish peroxidase-conjugated anti-rabbit and chemiluminescence with ECL Advance (GE Healthcare, Piscataway, N.J., USA) or anti-mouse IgG alkaline phosphatase with ECF (GE Healthcare, Piscataway, N.J., USA).

The next series has as its system AKT in endothelial cells. Nature of the series: AKT, downstream mediator of PI3K signaling, in endothelial cells. The series is classed as cell-based.
In series [3] the test system is BREC monolayer. Nature of the series: VEGF-induced retinal endothelial permeability assay (70 kDa RITC-Dextran). The series is classed as cell-based, bovine. Conditions: pretreatment 30 min, 30 or 100 nM PKCζl-diCl, 30 or 300 nM PKCl-diMeO; 50 ng/ml VEGF. The method, then:
(§2) Primary bovine retinal endothelial cells (BREC) were isolated from fresh bovine eye tissue. Human retinal endothelial cells (HREC) were from Cell Systems (Krikland, Wash., USA). Cells were grown in MCDB-131 complete media (Sigma-Aldrich, Mo., USA) containing 10% fetal bovine serum, 10 ng/ml epidermal growth factor, 200 μg/ml Endogro (Vec Technologies, Rensselaer, N.Y., USA), 90 μg/ml heparin, antibiotics and antimycotics. For experimentation, cells were grown to confluence and serum starved for 24 hours with 100 nM hydrocortisone and treated with VEGF at 50 ng/ml where indicated. All experiments were performed with cells at passage 5-8.
(§3) RECs were plated onto 0.4 μm Transwell filters (Corning Costar, Acton, Mass., USA) and grown to confluence. Following treatments, 70 kDa rhodamine β isothiocyanate-dextran (RITC-Dextran) was added to the apical chamber and samples were collected from the basolateral chamber at 30 minute intervals for 4 hours. The rate of flux of the substrate, Po, was calculated over the 4 hour time course from the following formula. Po=[FL/Δt)VA]/(FAA) where Po is in centimeters per second; FL is basolateral fluorescence; FA is apical fluorescence; Δt is change in time; A is the surface area of the filter (in square centimeters); and VA is the volume of the basolateral chamber (in cubic centimeters). […]

In series [4] the test system is BREC monolayer. The experiment in a line: TNF/VEGF permeability assay. The series is classed as cell-based, bovine. Conditions: 30 min pretreatment, TNFα 1 hour then VEGF 30 min. As for the experimental part:
BREC were plated onto 0.4 μm Transwell filters (Corning Costar, Acton, Mass., USA) and grown to confluence. Following 30 minutes of pretreatment with candidate compound, cells were subjected to 5 ng/ml TNFα (R&D Systems, Minneapolis, Minn., USA) for one hour, then 50 ng/ml VEGF (R&D Systems) for 30 minutes. Following treatments, 70 kDa Rhodamine β isothiocyanate-dextran (RITC-Dextran) was added to the apical chamber, and samples were collected from the basolateral chamber at 30 minute intervals for four hours. The rate of flux of the substrate, Po, was calculated over the four-hour time course from the following formula: Po=[FL/delta(t))VA]/(FAA)
where Po is in centimeters per second; FL is basolateral fluorescence; FA is apical fluorescence; delta(t) is change in time; A is the surface area of the filter (in square centimeters); and VA is the volume of the basolateral chamber (in cubic centimeters).

The next series concerns HEK293pNF-kBluc cells. The experiment in a line: TNF-induced NF-kB activation assay (luciferase reporter). The series is classed as cell-based, human. Conditions: Homo sapiens; 3 h pre-treatment, 5 ng/mL TNF for 5 h. As for the experimental part: HEK293pNF-kBluc cells (Panomics, Fremont, Calif., USA) were cultured according to the manufacturer's protocol. Cells were seeded onto 96-well plates in phenol red-free DMEM containing high glucose (Sigma) for 24 hours prior to assay. Cells were exposed to a candidate compound for three hours. Following treatment, cells were stimulated with 5 ng/ml TNF (R&D Systems) for five hours. Cells were then lysed with Bright-Glo™ luciferase reagent (Promega, Madison, Wis., USA) and luminescent values were obtained using a GloMax® instrument using standard protocol for Bright-Glo™ luciferase reagent. Values were background corrected and normalized to TNF treatment alone and represented as % NF-kB activity.
Human embryonic kidney cells containing a luciferase reporter gene for NF-kB activation (HEK293pNF-kBluc) were treated with candidate compounds described herein for three hours. The cells were then stimulated with TNF for five hours and the inhibition of NF-kB was evaluated. After pre-treatment with 100 nM of aPKC inhibitor, NF-kB activity was reduced by as much as 80%. […] Other compounds tested inhibited TNF-induced NF-kB activity, but to a lesser degree.
For orientation: Reporter assays use an easily measured gene product as a stand-in for the process of interest.

Series [5] in a line: Solubility in aqueous environments. The series is classed as physicochemical.
A further series deals with BREC. The experiment in a line: LIVE/Dead cell viability. The note with it: 24 and 48 hours; up to 300 nM.
For series [6], the system named is human retinal endothelial primary cells (HREC) monolayers. Nature of the series: Basal permeability of HREC monolayers. The series is classed as cell-based. As for the experimental part: as §2, §3
Series [7] has as its system occludin and ZO-1 border staining in BREC. The experiment in a line: Tight junction protein localization after VEGF (immunocytochemistry, confocal). The series is classed as cell-based, bovine. The note with it: 100 nM, 30 min before 50 ng/ml VEGF for 60 min. As for the experimental part: VEGF treatment of retinal endothelial cells and diabetes leads to a breakdown of the tight junction complex and internalization of tight junction proteins occludin and ZO-1. The ability of the phenyl-thiophene derivatives to prevent the VEGF-induced reduction in tight junction border staining was examined. BREC were grown to confluence on coverslips and pretreated with 100 nM PKCζ-diCl for 30 minutes prior to treatment with 50 ng/ml VEGF for 60 minutes. Cells were fixed and stained with antibodies for ZO-1 or occludin and were visualized by confocal microscopy. VEGF decreased the border staining and continuity of ZO-1 and occludin labeling at the cell border. […] This effect on the tight junction correlated with the observed attenuation of VEGF-induced permeability.

Series [8] relates to retinal vasculature tight junction complex (occludin). The experiment in a line: Occludin immuno-labeling of retinal flat mounts after intra-vitreal VEGF. Conditions: intra-vitreal co-injection with VEGF.

Chain of PKCβ (P05771 whole entry): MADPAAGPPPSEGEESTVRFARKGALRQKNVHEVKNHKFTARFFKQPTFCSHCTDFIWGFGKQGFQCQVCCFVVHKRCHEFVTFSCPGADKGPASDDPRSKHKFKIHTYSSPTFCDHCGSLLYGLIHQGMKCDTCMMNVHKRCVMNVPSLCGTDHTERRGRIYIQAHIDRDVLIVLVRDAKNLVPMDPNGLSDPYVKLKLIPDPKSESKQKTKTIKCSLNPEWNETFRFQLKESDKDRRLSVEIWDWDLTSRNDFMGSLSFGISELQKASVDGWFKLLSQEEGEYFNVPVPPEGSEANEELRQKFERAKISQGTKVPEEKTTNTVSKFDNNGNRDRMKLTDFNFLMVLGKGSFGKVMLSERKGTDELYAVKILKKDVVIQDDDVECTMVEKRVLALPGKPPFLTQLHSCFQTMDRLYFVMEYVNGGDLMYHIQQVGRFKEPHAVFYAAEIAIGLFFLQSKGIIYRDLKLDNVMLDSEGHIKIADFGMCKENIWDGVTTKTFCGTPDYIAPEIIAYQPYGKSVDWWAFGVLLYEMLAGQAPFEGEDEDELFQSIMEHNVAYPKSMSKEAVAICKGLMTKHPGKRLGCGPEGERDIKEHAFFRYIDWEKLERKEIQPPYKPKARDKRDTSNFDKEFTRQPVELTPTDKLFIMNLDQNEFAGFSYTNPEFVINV
Chain of PKCε (Q02156 whole entry): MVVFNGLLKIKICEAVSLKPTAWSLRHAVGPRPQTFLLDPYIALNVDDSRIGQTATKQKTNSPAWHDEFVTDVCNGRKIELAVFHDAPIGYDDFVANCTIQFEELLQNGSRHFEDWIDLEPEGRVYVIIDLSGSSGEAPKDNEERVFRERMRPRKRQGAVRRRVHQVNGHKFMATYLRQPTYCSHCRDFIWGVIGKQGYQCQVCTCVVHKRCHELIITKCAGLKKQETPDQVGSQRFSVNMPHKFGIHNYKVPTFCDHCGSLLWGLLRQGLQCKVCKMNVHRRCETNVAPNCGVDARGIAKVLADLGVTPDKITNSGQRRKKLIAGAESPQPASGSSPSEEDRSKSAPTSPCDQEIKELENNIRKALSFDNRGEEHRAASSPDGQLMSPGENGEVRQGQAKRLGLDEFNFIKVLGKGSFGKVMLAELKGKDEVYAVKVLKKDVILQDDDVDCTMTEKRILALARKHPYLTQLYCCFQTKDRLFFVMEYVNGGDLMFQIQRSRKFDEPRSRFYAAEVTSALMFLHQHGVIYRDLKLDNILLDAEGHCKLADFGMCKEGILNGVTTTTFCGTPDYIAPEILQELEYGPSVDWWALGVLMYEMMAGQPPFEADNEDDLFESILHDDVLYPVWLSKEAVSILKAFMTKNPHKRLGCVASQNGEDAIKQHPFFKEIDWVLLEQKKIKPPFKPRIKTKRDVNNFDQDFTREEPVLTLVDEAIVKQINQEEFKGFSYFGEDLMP
Chain of aPKCζ (Q05513 whole entry, canonical isoform): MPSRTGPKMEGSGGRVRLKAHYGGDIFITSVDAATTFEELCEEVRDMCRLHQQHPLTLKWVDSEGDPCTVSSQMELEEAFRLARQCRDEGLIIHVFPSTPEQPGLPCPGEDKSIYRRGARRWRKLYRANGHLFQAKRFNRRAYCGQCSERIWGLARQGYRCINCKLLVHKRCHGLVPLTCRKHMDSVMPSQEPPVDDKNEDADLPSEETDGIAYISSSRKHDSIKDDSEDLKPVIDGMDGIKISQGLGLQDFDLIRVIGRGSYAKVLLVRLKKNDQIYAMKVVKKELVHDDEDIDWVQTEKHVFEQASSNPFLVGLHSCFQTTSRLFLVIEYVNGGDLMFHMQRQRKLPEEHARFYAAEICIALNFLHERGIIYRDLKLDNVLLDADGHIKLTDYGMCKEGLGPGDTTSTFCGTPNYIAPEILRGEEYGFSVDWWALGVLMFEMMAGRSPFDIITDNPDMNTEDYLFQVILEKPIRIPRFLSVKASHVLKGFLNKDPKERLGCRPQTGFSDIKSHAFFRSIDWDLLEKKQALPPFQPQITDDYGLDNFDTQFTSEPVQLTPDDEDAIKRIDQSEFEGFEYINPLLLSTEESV

With `CCOC(=O)c1c(NC(C)=O)sc(C(C)=O)c1-c1ccc(Cl)cc1` [APOGEE B], the IC50 – broadly, the point on the concentration scale where inhibition reaches its midpoint – against aPKCζ was determined as 71 µM.

On to `COc1ccc(-c2csc(N)c2C(=O)OC(C)C)cc1OC` [PKCl-diMeO], for which the IC50 on PKCα is 282 µM; against PKCβ, 124 µM; against PKCδ, 147 µM; against PKCε it was greater than 100 µM. For the same compound, in the series on PKC isoforms, the “specificity towards atypical PKC isoforms compared to the classical PKCs (α, β)” value is reported as 25-50 fold. In addition, the “specificity towards atypical PKC isoforms compared to the novel class (δ,ε)” value in the series with PKC isoforms amounted to 25 fold. The “inhibitory activity towards other AGC kinases” value in [1] is reported as “limited inhibitory activity”. The “cPKC activity in cell culture” value in series [2] is listed as “did not inhibit cPKC activity”. Further, the Erk phosphorylation result in series [2] (endothelial cells) is on record as “unaffected”. For the same compound, the AKT signaling entry in the series with AKT in endothelial cells is recorded as “unaffected”. Also, in the series on BREC monolayer [3], the VEGF-induced permeability entry is “dose-dependently blocked”. The “TNF/VEGF-induction of BREC permeability” value in the series with BREC monolayer [4] is “significantly reduce”. Further, the EC50 in the series with BREC monolayer [4] (Bos taurus, read-out: EC50 for inhibition of TNF/VEGF-induced endothelial permeability) came out at 0.001 µM; with HEK293pNF-kBluc cells, 0.003 µM. In series [5], the “solubility in aqueous environments” value is listed as “improved solubility in aqueous environments”. Further, the BREC viability result in the series on BREC was “no evidence of cell death”.

As to `CC(C)OC(=O)c1c(-c2ccc(Cl)c(Cl)c2)csc1N` [PKCζl-diCl, isopropyl 2-amino-4-(3,4-dichlorophenyl)thiophene-3-carboxylate], in the series with PKC isoforms, the “specificity towards atypical PKC isoforms compared to the classical PKCs (α, β)” value was 5-10 fold and the “specificity towards atypical PKC isoforms compared to the novel class (δ,ε)” value is listed as 10-20 fold. For the same compound, the VEGF-induced permeability result in the series on BREC monolayer [3] is given as “dose-dependently blocked”. The “basal permeability of HREC monolayers” value in series [6] was “reducing permeability was also observed”. Besides, the “VEGF-induced redistribution of occludin and ZO-1” value in [7] was “blocked the VEGF-induced redistribution of occludin and ZO-1 proteins”. Besides, the “occludin border staining in retinal vessels” value in series [8] was “occludin border staining was preserved”.
